Source: patent US9085791B2, “Method for screening substance relating to endoplasmic reticulum stress participating in onset of diabetes” (THE UNIVERSITY OF TOKUSHIMA, priority 2011, dated 2015)

Columns and labels:
Assay type in all cases: cell-based
MIN6 cells = assay: Insulin secretion in pancreatic β-cell MIN6 cells (ELISA); settings: thapsigargin 0.2 uM or DTT 1 M for 30 minutes, culture 36 hours, then KREBS buffer with 3 mM or 20 mM glucose for 1 hour
Experimental: A control solution (DMSO), a thapsigargin solution (thapsigargin/DMSO solution), or a DTT solution (DTT/DMSO solution) was added to a culture solution (DMEM containing 10% fetal bovine serum) in which pancreatic p-cell MIN6 cells are cultured, and the culture solution was replaced with a general culture solution (DMEM containing 10% fetal bovine serum) after 30 minutes. Then, the culture was continued for 36 hours. The thapsigargin solution was added so that the thapsigargin concentration in the culture solution became 0.2 uM, and the DTT solution was added so that the DTT concentration in the culture solution became […]. Thereafter, the culture solution was replaced with a KREBS buffer solution containing 3 mM or 20 mM glucose, and the culture was continued for 1 hours. The concentration of insulin secreted in the culture solution was measured according to the ELISA method.

HEK293 cells = assay: Hoechst33258 staining for cell death of stimulated HEK293 cells; settings: etoposide 100 uM, thapsigargin 0.2 uM, DTT 1 mM, after 36 hours
ATF6 activation [1] = assay: ATF6 activity reporter system (EGFPS-ATF6d and EGFPL expression vectors) in HEK293 cells, green fluorescence
From the text: An EGFPS-ATF6d expression vector and an EGFPL expression vector were produced using a green fluorescent protein GFP as a reporter protein. An ATF6 activity reporter system having the two vectors was introduced into the following cell strains.
The EGFPS-ATF6d expression vector and the EGFPL expression vector were introduced into HEK293 cells using a polyethylene imine method at an efficiency of not less than 90%. Through an electroporation method using NEON (electroporation device) (Invitrogen), the EGFPS-ATF6d expression vector and the EGFPL expression vector were introduced into MIN6 cells, HepG2 cells, 3T3-L1 cells, and L6 cells at an efficiency of not less than 80%, 60%, 90%, and 70%, respectively.
In order to confirm that the ATF6 activity reporter system functions in an endoplasmic reticulum stress-dependent manner, the EGFPS-ATF6d expression vector and the EGFPL expression vector were coexpressed or individually expressed in HEK293 cells.
In the cells in which the EGFPS-ATF6d expression vector and the EGFPL expression vector were coexpressed, green fluorescence was slightly observed. The cells were stimulated with 0.2 ug/ml tunicamycin, which is an endoplasmic reticulum stress inducer, and observed 6 hours after the stimulation.
It is important that ATF6 activity reporter system is capable of detecting ATF6 activation in an endoplasmic reticulum stress-specific manner. Therefore, HEK293 cells in which the EGFPS-ATF6d expression vector and the EGFPL expression vector are coexpressed are stimulated by etoposide, which is a DNA replication inhibitor; thapsigargin, which is an endoplasmic reticulum stress inducer; and DTT, which is an endoplasmic reticulum stress inducer, in an amount of 100 uM, 0.2 uM, and 1 mM, respectively; and the presence of fluorescence was observed.

PERK pathway = assay: PERK activation reporter (ATF4 translation) in cell strains derived from different organs; settings: HepG2, MIN6, L6, 3T3-L1 cells; 0.2 ug/ml tunicamycin, 6 hours
From the text: (§1) The endoplasmic reticulum stress response is controlled by the three pathways, namely, Ire1 pathway, PERK pathway, and ATF6 pathway. Apart from the homeostasis of endoplasmic reticulum, they are also individually involved in control of organ-specific metabolism. Detection of the three endoplasmic reticulum stress response pathways is considered important to discover a drug targeting organ-specific endoplasmic reticulum stress response with fewer side effects. […] Med. (2004) 10 98-102, for measuring Ire1 pathway by XBP1 splicing, and a PERK activation reporter expression vector, disclosed in J Cell Biol. (2004) 167 27-33, for measuring PERK pathway by ATF4 translation were produced. An EGFPS-ATF6d expression vector, an EGFPL expression vector, the Ire1 activation reporter expression vector, and the PERK activation reporter expression vector were expressed in pancreatic β-cell strain MIN6 cells, hepatic cell strain HepG2 cells, adipose cell strain 3T3-L1 cells, and skeletal muscle cell strain L6 cells, respectively. The cells were observed 6 hours after the stimulation with 0.2 ug/ml tunicamycin, which is an endoplasmic reticulum stress inducer.

ATF6 activation [2] = assay: ATF6 activity reporter system in mouse fibroblasts modified by deleting Ire1α gene or PERK gene; settings: 0.2 ug/ml tunicamycin, 6 hours
Experimental: The endoplasmic reticulum stress response is known to be controlled by three individual pathways. It is important that the ATF6 activity reporter system enables detection of ATF6 activation with no influence of other pathways, such as Ire1 pathway or PERK pathway. In this connection, the EGFPS-ATF6d expression vector and the EGFPL expression vector were coexpressed in mouse fibroblasts modified by deleting Ire1α gene or PERK gene. The cells were observed 6 hours after stimulation with 0.2 ug/ml tunicamycin, which is an endoplasmic reticulum stress inducer.

ATF6 pathway = assay: ATF6 activity reporter system in cell strains derived from different organs; settings: HepG2, MIN6, L6, 3T3-L1 cells; 0.2 ug/ml tunicamycin, 6 hours
From the text: as §1

IRE1 pathway = assay: Ire1 activation reporter (XBP1 splicing) in cell strains derived from different organs; settings: 0.2 ug/ml tunicamycin, 6 hours
From the text: as §1

[3] = HEK293 cells coexpressing both vectors, etoposide 100 uM, thapsigargin 0.2 uM, DTT 1 mM

O[C@H](CS)[C@H](O)CS (racemic) [DTT, dithiothreitol] was tested, and the “insulin secretion (concentration of insulin secreted in the culture solution)” value (MIN6 cells) was “insulin secretion was suppressed”, the “cell death (Hoechst33258 staining)” value (HEK293 cells) was “severe enough to cause cell death after 36 hours” and the green fluorescence (ATF6 activation [1]; [3]) was “significant green fluorescence was observed”.
With COc1cc([C@@H]2c3cc4c(cc3[C@@H](O[C@@H]3O[C@@H]5CO[C@@H](C)O[C@H]5[C@H](O)[C@H]3O)[C@H]3COC(=O)[C@H]23)OCO4)cc(OC)c1O [etoposide] the “cell death (Hoechst33258 staining)” value (HEK293 cells) was “severe enough to cause cell death after 36 hours” and the green fluorescence (ATF6 activation [1]; [3]) was “no green fluorescence was observed”.
With C/C=C(/C)C(=O)O[C@H]1C(C)=C2[C@H]([C@@H]1OC(=O)CCCCCCC)[C@@](C)(OC(C)=O)C[C@H](OC(=O)CCC)[C@@]1(O)[C@H]2OC(=O)[C@@]1(C)O [thapsigargin] the “insulin secretion (concentration of insulin secreted in the culture solution)” value (MIN6 cells) was “insulin secretion was suppressed”, the “cell death (Hoechst33258 staining)” value (HEK293 cells) was “severe enough to cause cell death after 36 hours” and the green fluorescence (ATF6 activation [1]; [3]) was “significant green fluorescence was observed”.
For tunicamycin, the “degree of the activation of PERK pathway, order among cell strains” value (PERK pathway) was “highest in hepatic cell strain HepG2 cells (pancreatic β-cell strain MIN6 cells and skeletal muscle cell strain L6 cells), followed by adipose cell strain 3T3-L1 cells”, the green fluorescence (ATF6 activation [2]; fibroblast modified by Ire1α gene deletion) was “significant green fluorescence was observed” and the green fluorescence (ATF6 activation [2]; fibroblast modified by PERK gene deletion) was “significant green fluorescence was observed”. For the same compound, the “intensity of activation of ATF6 pathway, order among cell strains” value (ATF6 pathway) was “highest in hepatic cell strain HepG2 cells, followed by pancreatic β-cell strain MIN6 cells, skeletal muscle cell strain L6 cells, and adipose cell strain 3T3-L1 cells in descending order”, the green fluorescence (ATF6 activation [1]; 0.2 ug/ml tunicamycin, 6 hours after stimulation, HEK293 cells coexpressing EGFPS-ATF6d and EGFPL expression vectors) was “significant green fluorescence was observed” and the green fluorescence (ATF6 activation [1]; 0.2 ug/ml tunicamycin, 6 hours after stimulation, HEK293 cells with EGFPS-ATF6d and EGFPL expression vectors individually expressed) was “no green fluorescence was observed”. The “activation of IRE1 pathway (fluorescence intensity)” value (shortened to “activation of IRE1 pathway”) (IRE1 pathway; adipose cell strain 3T3-L1 cells) was “relatively low”, the “activation of IRE1 pathway” value (IRE1 pathway; hepatic cell strain HepG2 cells) was “relatively high” and the “activation of IRE1 pathway” value (IRE1 pathway; pancreatic β-cell strain MIN6 cells) was “relatively high”. For the same compound, the “activation of IRE1 pathway” value (IRE1 pathway; skeletal muscle cell strain L6 cells) was “relatively high”.
